Test results from patent US20260027073A1, “USE OF SMALL-MOLECULE COMPOUND HAVING NAPHTHYLAMINE STRUCTURE” (HANGZHOU PHECDAMED CO., LTD., priority 2023, published 2026).
Where “and” joins values, the source holds several entries; their conditions need not be identical. Equal values may be shown once.

Experiments:
[1] = system: rats of adenine induced kidney injury model; assay: Adenine-induced kidney injury; assay type: in vivo, SD rats
Protocol: Adenine-induced kidney injury is an animal model of chronic kidney injury. The model was prepared as follows: 1500 mg/kg of potassium oxonate and 50 mg/kg of adenine were ground and suspended in 0.5% carboxymethylcellulose sodium (CMC-Na) solution and gavaged once a day in a volume of 10 mL/kg for 180-200 g male SD rats, and an equal dose of 0.5% CMC-Na solution was gavaged for the sham group. After 1 week of modeling, serum creatinine (Cr) was measured weekly to determine whether the model was successful or not; in this experiment, there was a statistically significant difference in serum creatinine elevation on the 21st day of modeling compared with that of the sham group, at this time, administration in group was initiated, and the shock modeling with 1500 mg/kg of potassium oxonate and 50 mg/kg of adenine was continued daily along with the administration. The test was divided into three groups according to the serum creatinine level, sham operation group (sham group, without adenine modeling and vehicle treatment by oral gavage), control group (model control group, vehicle treatment by oral gavage), and 15 mg/kg group (15 mg/kg compound I-1 by oral gavage), and the dosage was once a day in the volume of 10 ml/kg for 21 consecutive days. […] At the end of the administration, blood was collected from the heart, and the blood was centrifuged at 12000 g for 10 minutes at 4° C. after standing at room temperature for 45 minutes, and the supernatant (serum) was extracted to measure the levels of creatinine and uric acid in the serum. After euthanasia of rats at endpoint of test, rats were dissected and kidneys were taken, of which 4 kidneys were fixed with 4% paraformaldehyde for 48 h, embedded in paraffin, sectioned, and HE stained, the specific staining operation was as described above. The left kidney tissue was taken and ground, and the inflammatory factors IL-10 and TNFα were detected by Elisa method.

[2] = system: chronic epilepsy mouse model; assay: PTZ chronic epilepsy model; assay type: in vivo, ICR mice; conditions: for seizure grade (Racine grading) / latency in platform jumping (Step-down) experiment / Step-through latency, dark avoidance experiment: 30 mg/kg oral gavage, 21 days; for seizure grade (Racine grading): FIG. 63; for latency in platform jumping (Step-down) experiment: FIG. 64; for Step-through latency, dark avoidance experiment: FIG. 65; for serum IL-1β level / serum TNF-α level: 30 mg/kg, to a certain degree, FIG. 66
Protocol: Clean grade 8-10 week old male ICR mice were selected for the preparation of a chronic epilepsy mouse model. They were randomly divided into four groups: normal control group (Control, 0.5% CMC-Na treatment by oral gavage, n=8), model group (Model, 0.5% CMC-Na treatment by oral gavage, n=8), TJ01-013 treatment group (TJ01-013, 30 mg/kg TJ01-013 by oral gavage, n=8), I-14-1 treatment group (I-14-1, 30 mg/kg I-14-1 by oral gavage, n=8). Starting from the first day of the experiment, at 10-11 am every day, mice in all groups except the normal control group were injected intraperitoneally with PTZ 40 mg/kg and the normal control group was injected with the corresponding volume of saline for a total of 21 days. The drug administration treatment was started right after the start of modeling, and the drug was administered once a day for a total of 21 days, and the corresponding tests were performed at the end of the drug administration.
Epileptic seizure grading standard is based on Racine grading: Grade 0, no convulsive response, manifested as normal behavior state; Grade I, facial muscle spasm, manifested as rhythmic chewing, blinking, moving whiskers, etc.; Grade II, neck muscle spasm, manifested as head nodding with or without tail erecting; Grade III, forelimb lifting, clonic or rhythmic twitching; Grade IV, hindlimb tonic or standing tonic; Grade V, generalized clonic, standing tonic and falling down; loss of balance.
The platform jumping experiment is an experimental method designed to utilize the habit of experimental mice to jump down from a high place immediately to explore the surrounding environment. The experimental mice are placed on a high platform, and at the moment of jumping down, they are given electrical stimulation. Then in order to avoid the electric stimulus, the animals will not jump off the platform, while the mice that are not good at learning and memorizing will maintain their habit and jump off the platform. At the end of each round of the experiment, 75% alcohol were sprayed for wiping to avoid odor interference between the mice. The experiment was conducted after the administration, and the experimental device was a cubic box with a (10 cm×10 cm) electric fence at the bottom and a height of 30 cm, with a platform of 3.2 cm in height and 4.2 cm in diameter inside. The experimental steps and procedures of this experiment were divided into: (1) The mice were put into the bottom of the experimental device, which was not energized at this time, so that they were free to explore and adapt to the environment for 10 s. (2) The mice were placed on the high platform inside the experimental device, and the time at which the mice jumped off the high platform was recorded as Initial latency, and were given electrical stimulation (50 Hz, 20 V, 5 s). (3) After 24 h, the mice were placed on the platform again, and the time at which they jumped off the platform was recorded as Step-down latency. The residence time of the mice on the high platform should not exceed 60 s, and the time exceeding 60 s was still recorded as 60 s.
The step through dark avoidance experiment is an experimental method designed to utilize the tendency of mice to move around in dark environments more than in bright environments. The experimental mice are placed in a bright environment of a bright and dark environment connecting device, and then electrically stimulated when they enter the dark environment. Then in order to avoid the electric stimulus, they will move into the light environment, while mice that are not good at learning and memorizing will maintain their habit and enter the dark environment. At the end of each round of the experiment, 75% alcohol were sprayed for wiping to avoid odor interference between mice. This experiment was conducted at the end of the administration. […]

Compound	body weight ([1]; 15 mg/kg oral gavage, 21 days, FIG. 9)	TNF-α level in kidney tissues ([1]; 15 mg/kg, 21 days, FIG. 12)	renal histopathology (HE staining) ([1]; 15 mg/kg, 21 days, FIG. 13)	serum urea nitrogen level ([1]; 15 mg/kg, 21 days, P<0.05, FIG. 11)	Serum creatinine decreased by ([1]; 15 mg/kg, after 21 days, P<0.05, FIG. 10)	Renal lesion (number of kidneys, n = 4) ([1]; Degree of lesion + (mild lesions), 15 mg/kg)	Renal lesion (number of kidneys, n = 4) ([1]; Degree of lesion ++ (moderate lesions), 15 mg/kg)	Renal lesion (number of kidneys, n = 4) ([1]; Degree of lesion +++ (severe lesions), 15 mg/kg)	Renal lesion (number of kidneys, n = 4) ([1]; Degree of lesion ± (slight lesions), 15 mg/kg)	Renal lesion (number of kidneys, n = 4) ([1]; Degree of lesion − (no lesions), 15 mg/kg)	seizure grade (Racine grading) [2]	latency in platform jumping (Step-down) experiment [2]	Step-through latency, dark avoidance experiment [2]	serum IL-1β level [2]	serum TNF-α level [2]	treatment effect of TJ01-013 compared with I-14-1 ([2]; both 30 mg/kg, per readout of the block)	treatment of adenine-induced renal injury compared with I-1 ([1]; UMI-77 vs I-1)
O=C(O)C[S+]([O-])c1cc(NS(=O)(=O)c2ccc(Br)cc2)c2ccccc2c1O (stereo not shown) [I-1]	no significant change	significantly decreased	improved the histopathology of adenine-induced renal injury to some extent	significantly decreased	20.7%	1/4 and 1	3/4 and 3	0	0	0	significant difference in reducing seizures	increase the Initial latency to a certain degree	increase the latency to a certain extent	reduce	reduce	significantly better	
O=C(O)C[S+]([O-])c1cc(NS(=O)(=O)c2ccc(C(F)(F)F)cc2)c2ccccc2c1O (stereo not shown) [I-14-1]											reduce the seizure grade	increase the Initial latency to a certain degree	increase the latency to a certain extent	reduce	reduce		
O=C(O)CSc1cc(NS(=O)(=O)c2ccc(Br)cc2)c2ccccc2c1O [UMI-77, reference compound]																	less effective
